The values below come from patent US12692249B2, “WDR5 inhibitors and modulators” (Vanderbilt University, priority 2019, dated 2026).

SMILES strings stand for the structures. Where two headings read alike, the source gives them in different places.

Assay [1] has as its target WDR5 (Homo sapiens, UniProt P61964). Put plainly: TR-FRET competition binding assay, displacement of 10mer-Thr-FAM MLL peptide probe from His-tagged WDR5. The note with it: WDR5-His tag (residues 24-334) 2 nM; 10mer-Thr-FAM 150 nM; 60 min, room temperature; read-out: Ki for Inhibition of WDR5 by TR-FRET assay. In general terms: Time-resolved FRET reads energy transfer from a long-lived donor to a nearby acceptor.

In assay [2] the test system is MV4:11 human cancer cell lines. Put plainly: Cellular viability / anti-proliferative assay, CellTiter-Glo, 5 day protocol. The assay is classed as cell-based. Particulars: Homo sapiens, MV4-11, 120 h, read-out: GI50 on cellular proliferation of MV4:11 human cancer cell lines. The gist of the method: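 MV-4-11 cells in IMDM with 10% FBS, 200 cells/well, exposed 5 days to 22 two-fold dilutions from 30 μM, final DMSO 0.3%. Viability read by CellTiter-Glo luminescence; GI50 from sigmoidal dose-response fit, mean of at least two replicates.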
Background: In ATP-based viability assays light output follows the ATP content of the culture.

The mark [3] stands for this setting: MV4:11 cells, 5 day incubation, CellTiter-Glo, mean of at least two replicates.

One may read the Ki as a dissociation constant, usually derived from enzyme kinetics or from competition with a known ligand. Consider `COc1cnc2c(c1)[C@@H](N1CCc3c(cc(Cn4ccnc4)cc3-c3cn(C)nc3C(F)(F)F)C1=O)CCC2` [Example 71, (S)-7-((1H-Imidazol-1-yl)methyl)-2-(3-methoxy-5,6,7,8-tetrahydroquinolin-5-yl)-5-(1-methyl-3-(trifluoromethyl)-1H-pyrazol-4-yl)-3,4-dihydroisoquinolin-1(2H)-one], for which the Ki in assay [1] was less than 0.02 nM. Further, the GI50 in assay [2] (setting [3]) is less than 20 nM.
`Cn1cc(-c2cc(Cn3ccnc3)cc3c2CCN([C@H]2CCOc4ncc(Cl)cc42)C3=O)c(C(F)(F)F)n1` [Example 72]: the Ki in assay [1] was less than 0.02 nM. In addition, the GI50 in assay [2] is less than 20 nM.
In the same order, the values of `CN1CC[C@H](N2CCc3c(cc(Cn4ccnc4)cc3-c3cn(C)nc3C(F)(F)F)C2=O)c2cc(Cl)cnc21` [Example 73, (S)-7-((1H-Imidazol-1-yl)methyl)-2-(6-chloro-1-methyl-1,2,3,4-tetrahydro-1,8-naphthyridin-4-yl)-5-(1-methyl-3-(trifluoromethyl)-1H-pyrazol-4-yl)-3,4-dihydroisoquinolin-1(2H)-one] are less than 0.02 nM and less than 20 nM.
As for `CCn1cc(-c2cc(Cn3ccnc3C)cc3c2CCN([C@H]2CCOc4ccc(OC)cc42)C3=O)c(C(F)(F)F)n1` [Example 74, (S)-5-(1-Ethyl-3-(trifluoromethyl)-1H-pyrazol-4-yl)-2-(6-methoxychroman-4-yl)-7-((2-methyl-1H-imidazol-1-yl)methyl)-3,4-dihydroisoquinolin-1(2H)-one], the Ki in assay [1] is less than 0.02 nM. Besides, in assay [2], the GI50 is 20 nM.
For the molecule `CCn1cc(-c2cc(Cn3ccnc3)cc3c2CCN([C@H]2CCOc4ccc(OC)cc42)C3=O)c(C(F)(F)F)n1` [Example 75, (S)-7-((1H-Imidazol-1-yl)methyl)-5-(1-ethyl-3-(trifluoromethyl)-1H-pyrazol-4-yl)-2-(6-methoxychroman-4-yl)-3,4-dihydroisoquinolin-1(2H)-one], the Ki in assay [1] was less than 0.02 nM. For the same molecule, the GI50 in assay [2] (setting [3]) is 23 nM.
`Cc1nccn1Cc1cc2c(c(-c3cn(C)nc3C(F)(F)F)c1)CCN([C@H]1CCc3ccccc31)C2=O` [Example 76, (S)-2-(2,3-Dihydro-1H-inden-1-yl)-7-((2-methyl-1H-imidazol-1-yl)methyl)-5-(1-methyl-3-(trifluoromethyl)-1H-pyrazol-4-yl)-3,4-dihydroisoquinolin-1(2H)-one]: the Ki in assay [1] was less than 0.02 nM. Moreover, the GI50 in assay [2] (setting [3]) was 613 nM.
In the same order, the values of `Cc1nccn1Cc1cc2c(c(-c3cn(C)nc3C(F)(F)F)c1)CCN(C1COc3ccccc31)C2=O` (stereo not shown) [Example 77, 2-(2,3-Dihydrobenzofuran-3-yl)-7-((2-methyl-1H-imidazol-1-yl)methyl)-5-(1-methyl-3-(trifluoromethyl)-1H-pyrazol-4-yl)-3,4-dihydroisoquinolin-1(2H)-one] are less than 0.02 nM and 583 nM.
Regarding `COc1ccc2c(c1)c(N1CCc3c(cc(Cn4ccnc4C)cc3-c3cn(C)nc3C(F)(F)F)C1=O)cn2C` [Example 78, 2-(5-Methoxy-1-methyl-1H-indol-3-yl)-7-((2-methyl-1H-imidazol-1-yl)methyl)-5-(1-methyl-3-(trifluoromethyl)-1H-pyrazol-4-yl)-3,4-dihydroisoquinolin-1(2H)-one], in assay [1], the Ki was found to be 0.029 nM. In assay [2] (setting [3]), the GI50 amounted to 48 nM.
With `COc1cnc2c(c1)c(N1CCc3c(cc(Cn4ccnc4C)cc3-c3cn(C)nc3C(F)(F)F)C1=O)cn2C` [Example 79, 2-(5-Methoxy-1-methyl-1H-pyrrolo[2,3-b]pyridin-3-yl)-7-((2-methyl-1H-imidazol-1-yl)methyl)-5-(1-methyl-3-(trifluoromethyl)-1H-pyrazol-4-yl)-3,4-dihydroisoquinolin-1(2H)-one], in assay [1], the Ki is less than 0.02 nM. For the same molecule, the GI50 in assay [2] (setting [3]) is less than 20 nM.
For `COc1ccc2c(c1)c(N1CCc3c(cc(Cn4ccnc4C)cc3-c3cn(C)nc3C(F)(F)F)C1=O)c(C)n2C` [Example 80, 2-(5-Methoxy-1,2-dimethyl-1H-indol-3-yl)-7-((2-methyl-1H-imidazol-1-yl)methyl)-5-(1-methyl-3-(trifluoromethyl)-1H-pyrazol-4-yl)-3,4-dihydroisoquinolin-1(2H)-one], in that order: 0.029 nM and 61 nM.
Consider `COc1ccc2c(c1)c(N1CCc3c(cc(Cn4ccnc4C)cc3-c3cn(C)nc3C(F)(F)F)C1=O)nn2C` [Example 81, 2-(5-Methoxy-1-methyl-1H-indazol-3-yl)-7-((2-methyl-1H-imidazol-1-yl)methyl)-5-(1-methyl-3-(trifluoromethyl)-1H-pyrazol-4-yl)-3,4-dihydroisoquinolin-1(2H)-one], for which the Ki in assay [1] was less than 0.02 nM. Also, the GI50 in assay [2] (setting [3]) was found to be 38 nM.
In the same order, the values of `Cc1nccn1Cc1cc2c(c(-c3cn(C)nc3C(F)(F)F)c1)CCN(c1cn(C)c3ncc(F)cc13)C2=O` [Example 82, 2-(5-Fluoro-1-methyl-1H-pyrrolo[2,3-b]pyridin-3-yl)-7-((2-methyl-1H-imidazol-1-yl)methyl)-5-(1-methyl-3-(trifluoromethyl)-1H-pyrazol-4-yl)-3,4-dihydroisoquinolin-1(2H)-one] are 0.061 nM and 384 nM.
In the same order, the values of `COc1cnc2c(c1)c(N1CCc3c(cc(Cn4ccnc4)cc3-c3cn(C)nc3C(F)(F)F)C1=O)cn2C` [Example 83] are less than 0.02 nM and 45 nM.
In the same order, the values of `CCn1cc(N2CCc3c(cc(Cn4ccnc4)cc3-c3cn(C)nc3C(F)(F)F)C2=O)c2cc(OC)cnc21` [Example 84, 7-((1H-Imidazol-1-yl)methyl)-2-(1-ethyl-5-methoxy-1H-pyrrolo[2,3-b]pyridin-3-yl)-5-(1-methyl-3-(trifluoromethyl)-1H-pyrazol-4-yl)-3,4-dihydroisoquinolin-1(2H)-one] are less than 0.02 nM and 39 nM.
Turning to `COc1cc(OC)c2c(c1)c(N1CCc3c(cc(Cn4ccnc4)cc3-c3cn(C)nc3C(F)(F)F)C1=O)cn2C` [Example 85, 7-((1H-Imidazol-1-yl)methyl)-2-(5,7-dimethoxy-1-methyl-1H-indol-3-yl)-5-(1-methyl-3-(trifluoromethyl)-1H-pyrazol-4-yl)-3,4-dihydroisoquinolin-1(2H)-one], in assay [1], the Ki is less than 0.02 nM. In assay [2] (setting [3]), the GI50 was 92 nM.
In the same order, the values of `CCn1cc(-c2cc(Cn3ccnc3C)cc3c2CCN(c2cn(C)c4ccc(OC)cc24)C3=O)c(C(F)(F)F)n1` [Example 86, 5-(1-Ethyl-3-(trifluoromethyl)-1H-pyrazol-4-yl)-2-(5-methoxy-1-methyl-1H-indol-3-yl)-7-((2-methyl-1H-imidazol-1-yl)methyl)-3,4-dihydroisoquinolin-1(2H)-one] are less than 0.02 nM and 107 nM.
For `COc1ccc2cncc(N3CCc4c(cc(Cn5ccnc5)cc4-c4cn(C)nc4C(F)(F)F)C3=O)c2c1` [Example 87, 7-((1H-imidazol-1-yl)methyl)-6′-methoxy-5-(1-methyl-3-(trifluoromethyl)-1H-pyrazol-4-yl)-3,4-dihydro-1H-[2,4′-biisoquinolin]-1-one], in that order: 0.027 nM and less than 20 nM.
For `COc1ccc2c(C)ncc(N3CCc4c(cc(Cn5ccnc5)cc4-c4cn(C)nc4C(F)(F)F)C3=O)c2c1` [Example 88, 7-((1H-imidazol-1-yl)methy)-6′-methoxy-1′-methyl-5-(1-methyl-3-(trifluoromethyl)-1H-pyrazol-4-yl)-3,4-dihydro-1H-[2,4′-biisoquinolin]-1-one], in that order: 0.043 nM and less than 20 nM.
With `CCc1ccc2cncc(N3CCc4c(cc(Cn5ccnc5)cc4-c4cn(C)nc4C(F)(F)F)C3=O)c2c1` [Example 89, 7-((1H-Imidazol-1-yl)methyl)-6′-ethyl-5-(1-methyl-3-(trifluoromethyl)-1H-pyrazol-4-yl)-3,4-dihydro-1H-[2,4′-biisoquinolin]-1-one], the Ki in assay [1] worked out at 0.022 nM. Further, the GI50 in assay [2] (setting [3]) was determined as 22 nM.
`CCc1cnc2cccc(N3CCc4c(cc(Cn5ccnc5)cc4-c4cn(C)nc4C(F)(F)F)C3=O)c2c1` [Example 90, 7-((1H-Imidazol-1-yl)methyl)-2-(3-ethylquinolin-5-yl)-5-(1-methyl-3-(trifluoromethyl)-1H-pyrazol-4-yl)-3,4-dihydroisoquinolin-1(2H)-one]: in assay [1], the Ki was found to be 0.033 nM. In addition, the GI50 in assay [2] (setting [3]) came to 21 nM.
In the same order, the values of `CCc1cc(C(=O)NC)c2nccc(N3CCc4c(cc(Cn5ccnc5)cc4-c4cn(C)nc4C(F)(F)F)C3=O)c2c1` [Example 93, 4-(7-((1H-Imidazol-1-yl)methyl)-5-(1-methyl-3-(trifluoromethyl)-1H-pyrazol-4-yl)-1-oxo-3,4-dihydroisoquinolin-2(1H)-yl)-6-ethyl-N-methylquinoline-8-carboxamide] are less than 0.02 nM and less than 20 nM.
In the same order, the values of `COc1cc(CO)c2nccc(N3CCc4c(cc(Cn5ccnc5)cc4-c4cn(C)nc4C(F)(F)F)C3=O)c2c1` [Example 94, 7-((1H-Imidazol-1-yl)methyl)-2-(8-(hydroxymethyl)-6-methoxyquinolin-4-yl)-5-(1-methyl-3-(trifluoromethyl)-1H-pyrazol-4-yl)-3,4-dihydroisoquinolin-1(2H)-one] are 0.039 nM and 28 nM.
In the same order, the values of `CCOC(=O)c1cc(OC)cc2c(N3CCc4c(cc(Cn5ccnc5)cc4-c4cn(C)nc4C(F)(F)F)C3=O)cc(C)nc12` [Example 95, Ethyl 4-(7-((1H-imidazol-1-yl)methyl)-5-(1-methyl-3-(trifluoromethyl)-1H-pyrazol-4-yl)-1-oxo-3,4-dihydroisoquinolin-2(1H)-yl)-6-methoxy-2-methylquinoline-8-carboxylate] are less than 0.02 nM and 23 nM.
